Source: US10598653B2, “Methods of blocking cancer stem cell growth” (Bionomics Inc., priority 2011, dated 2020)
Blank lines part the entries; values can stand above or below the molecule they belong to.

Experiments:
[1] = tested on: colon tumor cells re-implanted in secondary recipients; test: Secondary transplant tumor formation after GPR49 mAb+irinotecan; format: in vivo, mice; conditions: 140 day follow-up
Source text: Isolated tumor cells from control or GPR49 mAb+irinotecan treated tumors from the in vivo study outlined in Example 3 were harvested, pooled, dissociated and re-implanted in a limiting dilution secondary transplant assay to measure cancer stem cell frequency. For each treatment group, 8 mice were implanted with 10, 30, 100 cells. […]

[2] = tested on: CT1 primary colon tumor xenograft; test: CT1 primary colon tumor xenograft, combination with Irinotecan; format: in vivo, SCID beige female mice; conditions: 10 mg/kg IP once per day for the first 5 days
Method: Single agent in vivo efficacy of murine antibodies 14F7.1, 18G7.1, 5B10.1, 14A8.1, 1B3.5 was evaluated in a primary colon tumor xenograft model system using CT1 primary xenograft cells. CT1 is a primary colorectal (CRC) in vivo xenograft tumor established from a fresh CRC patient tumor sample. The mutational status was determined by Ion Torrent deep sequencing to identify oncogene mutations. Approximately 5-15% of CT1 tumors express GPR49. SCID beige female mice were inoculated with CT1 tumor cells and monitored for tumor growth. Mice were randomized at day 0 into groups of 10 when mean tumor volume reached 175 mm^3. Chemotherapeutic Irinotecan was administered IP at 10 mg/kg once per day for the first 5 days. The antibodies were administered intraperitoneally (i.p.) at 15 mg/kg administered twice weekly for 4 weeks. Tumors were measured at the indicated intervals post-inoculation for total tumor volume.

GPR49-Fc = target: T1, GPR49-Fc (Homo sapiens, UniProt O75473); test: Solution affinity surface plasmon resonance of RSPO-1 on GPR49-Fc; conditions: initial binding rates, GPR49-Fc competition
T1 construct: FLAG (C)
Method: Methods: Binding of RSPO to GPR49 was analyzed using solution affinity surface plasmon resonance (Day E S, et al. Biochemistry. 2005 Feb. 15; 44(6):1919-31). The method utilizes conditions of so-called “mass-transport-limited” binding, in which the initial rate of ligand binding (protein binding to the sensor chip) is proportional to the concentration of ligand in solution (BIApplications Handbook (1994) Chapter 6: Concentration measurement, pp 6-1-6-10, Pharmacia Biosensor AB). Under these conditions, binding of the soluble analyte (protein flowing over chip surface) to the immobilized protein on the chip is fast compared to the diffusion of the analyte into the dextran matrix on the chip surface. Therefore, the diffusion properties of the analyte and the concentration of analyte in solution flowing over the chip surface determine the rate at which analyte binds to the chip. In this experiment, the concentration of free RSPO-1 in solution is determined by the initial rate of binding to a CM5 Biacore chip containing immobilized GPR49-Fc. Into these RSPO-1 solutions were titrated the competing GPR49-Fc.

T1 sequence (O75473 with tags, fused parts or gaps): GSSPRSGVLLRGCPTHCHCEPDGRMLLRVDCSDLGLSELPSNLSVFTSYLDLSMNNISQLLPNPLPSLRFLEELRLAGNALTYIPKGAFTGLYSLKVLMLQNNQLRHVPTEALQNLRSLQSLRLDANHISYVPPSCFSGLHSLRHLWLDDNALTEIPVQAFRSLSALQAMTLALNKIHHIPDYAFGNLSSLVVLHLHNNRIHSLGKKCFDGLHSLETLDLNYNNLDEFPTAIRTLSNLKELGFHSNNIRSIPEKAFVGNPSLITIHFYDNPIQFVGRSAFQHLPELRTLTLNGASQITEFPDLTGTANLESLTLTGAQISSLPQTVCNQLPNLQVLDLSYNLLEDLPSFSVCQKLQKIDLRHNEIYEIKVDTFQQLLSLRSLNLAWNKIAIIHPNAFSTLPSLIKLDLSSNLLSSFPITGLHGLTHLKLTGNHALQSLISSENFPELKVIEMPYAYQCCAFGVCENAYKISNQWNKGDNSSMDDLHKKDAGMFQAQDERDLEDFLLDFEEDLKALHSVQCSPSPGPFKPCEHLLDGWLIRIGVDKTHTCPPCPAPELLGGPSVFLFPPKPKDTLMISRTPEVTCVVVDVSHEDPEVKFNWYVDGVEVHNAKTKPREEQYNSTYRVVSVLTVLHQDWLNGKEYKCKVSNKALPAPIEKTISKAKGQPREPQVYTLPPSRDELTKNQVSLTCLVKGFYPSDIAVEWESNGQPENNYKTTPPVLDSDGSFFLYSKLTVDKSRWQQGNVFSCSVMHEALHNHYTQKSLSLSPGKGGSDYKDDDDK

Molecule: CCc1c2c(nc3ccc(OC(=O)N4CCC(N5CCCCC5)CC4)cc13)-c1cc3c(c(=O)n1C2)COC(=O)[C@]3(O)CC [Irinotecan]
- average tumor size [1]: 1729 mm^3
- tumor inhibition, Irinotecan alone [2]: 45%

- binding profile (GPR49-Fc): bi-phasic binding profile
B1: R-spondin 1: R-spondin family Wnt-pathway modulator protein, purchased from R& D systems (protein, UniProt Q2MKA7 21-263, looked up)
R-spondin-1: SRGIKGKRQRRISAEGSQACAKGCELCSEVNGCLKCSPKLFILLERNDIRQVGVCLPSCPPGYFDARNPDMNKCIKCKIEHCEACFSHNFCTKCKEGLYLHKGRCYPACPEGSSAANGTMECSSPAQCEMSEWSPWGPCSKKQQLCGFRRGSEERTRRVLHAPVGDHAACSDTKETRRCTVRRVPCPEGQKRRKGGQGRRENANRNLARKESKEAGAGSRRRKGQQQQQQQGTVGPLTSAGPA
